Nine molecules from patent US20040053893A1, “Method of assaying iysophospholipase d activity” (priority 2000, published 2004) can be followed below.

In one assay the test system is LPLD. As to the kind of experiment: Substrate specificity of purified LPLD or recombinant LPLD (Table 1). The format is biochemical. From the text: The thus-obtained purified LPLD or recombinant LPLD has a substrate specificity as shown in, for example, Table 1.
For the next assay, the target named is LPLD in human serum (Homo sapiens, UniProt Q13822). As to the kind of experiment: LPLD activity assay with chromogenic substrates, human serum sample (Example 6). Conditions: pH 8.0, 37° C., p-nitrophenol release at 405 nm, compared with 1-acyl-2-hydroxy substrates B and D (FIG. 2-1).
Assay [1] deals with T1, purified LPLD (bovine lysophospholipase D) (Bos taurus, UniProt A1A4K5).
T1 construct: The starting material, FCS, and respective fractions obtained in the above-mentioned (1)-(7) were assayed for lysophospholipase D activity; from tissue; host or cells: fetal calf serum (FCS), chromatographic purification
The assay can be described thus: LPLD activity assay using purified LPLD at various reaction pHs (Example 12). The format is biochemical. Conditions: purified LPLD of Example 9, 37° C., 405 nm (FIG. 5). The protocol: (2) Preparation of Reagents
Reagent C: 1-myristoyl-phosphatidyl-p-nitrophenol was dissolved in reagent B to correspond to 10 mmol/L and used as reagent C.
For assay, biochemical automatic analyzer (Toshiba Corporation: TBA-80FR NEO) was used. The purified LPLD (8 μL) obtained in Example 9 and reagent A (240 μL) were pre-warmed at 37° C. for about 15 min, and after addition of reagent C (80 μL), the absorbance at dominant wavelength 405 nm and sub wavelength of 505 nm was measured with lapse of time for about 15 min.

Another assay concerns the target human serum albumin (Homo sapiens, UniProt P02768). Conditions: 5% human serum albumin, reagent B pH 7.6-8.6, 37° C. (FIG. 1).
For assay [2], the target named is T2, LPLD in control serum (CONSERA, Lipid Serum II) (Homo sapiens, UniProt Q13822).
T2 construct: Two kinds of commercially available control serum; purchased Nissui Pharmaceutical Co. (CONSERA); Eiken Chemical Co., Ltd. (Lipid Serum II); host or cells: commercial control serum
As to the kind of experiment: LPLD activity assay at various reaction pHs, control sera (Example 5). The format is biochemical. Conditions: reagent B pH 7.6-8.6, 37° C. (FIG. 1). From the text: (1) Preparation of Reagent

Sequence of human serum albumin (P02768 25-609): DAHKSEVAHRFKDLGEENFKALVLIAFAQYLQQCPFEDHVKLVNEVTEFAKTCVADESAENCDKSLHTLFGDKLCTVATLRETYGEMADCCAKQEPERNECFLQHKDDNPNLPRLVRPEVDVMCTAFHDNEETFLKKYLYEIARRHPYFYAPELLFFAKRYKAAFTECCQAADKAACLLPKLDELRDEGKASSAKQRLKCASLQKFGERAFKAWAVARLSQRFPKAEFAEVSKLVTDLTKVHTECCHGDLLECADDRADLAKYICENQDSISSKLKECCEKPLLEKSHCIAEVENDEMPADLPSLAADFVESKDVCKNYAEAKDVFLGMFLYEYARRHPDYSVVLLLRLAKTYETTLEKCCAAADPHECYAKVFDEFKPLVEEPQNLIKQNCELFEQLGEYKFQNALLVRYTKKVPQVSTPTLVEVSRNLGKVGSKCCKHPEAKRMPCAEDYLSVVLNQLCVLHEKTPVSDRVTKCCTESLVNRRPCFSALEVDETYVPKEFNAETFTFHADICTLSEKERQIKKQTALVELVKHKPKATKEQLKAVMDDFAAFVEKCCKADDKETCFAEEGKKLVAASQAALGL
Method for LPLD in human serum: 2-[4-(2-hydroxyethyl)-1-piperazinyl]ethanesulfonic acid (100 mmol/L), Triton X-100 (0.01%)
Using human serum as a sample, 5% human serum albumin (fatty acid free: Sigma) solution was used for determining the activity in albumin fraction in the serum, and a 5 U/mL solution of Streptomyces-derived PLD (product abbreviation PLDP: Asahi Chemical Industry Co., Ltd.) was used for determining the reactivity with phospholipase D (PLD).
Each sample (10 μL) and reagent A (150 μL) were dispensed to a microplate and the plate was incubated at 37° C. for about 5 min. Thereto was added reagent C (50 μL) and the absorbance at a dominant wavelength of 405 nm and sub wavelength of 540 nm was measured with the lapse of time. The LPLD activity was determined based on changes in absorbance per minute that depend on p-nitrophenol released by the action of LPLD. The activity is expressed by the amount of p-nitrophenol released in one minute per 1 mL of the reaction mixture.
From the text for human serum albumin: Reagent A: N-(2-hydroxyethyl)piperazine-N′-3-propanesulfonic acid (200 mmol/L), Triton X-100 (0.02%)
Reagent B: reagent A was separated and adjusted to pH 7.6, 7.8, 8.0, 8.2, 8.4 and 8.6, diluted 2-fold to give reagent B having various pHs.
citric acid monohydrate (10 mmol/L), Triton X-100 (0.01%), 1-hydroxy-2-linoleoyl-phosphatidyl-p-nitrophenol (Example 3; 10 mmol/L) prepared in the above-mentioned Example.
Two kinds of commercially available control serum, respective test sample 1 (CONSERA: Nissui Pharmaceutical Co.) and test sample 2 (Lipid Serum II: Eiken Chemical Co., Ltd.), and 5% human serum albumin (fatty acid free: Sigma) solution for determination of the activity of albumin fraction in the serum, were used.
Each sample (10 μL) and reagent B (150 μL) were dispensed to a microplate and the plate was incubated at 37° C. for about 5 min. Thereto was added reagent C (50 μL) and the absorbance at a dominant wavelength of 405 nm and sub wavelength of 540 nm was measured with the lapse of time. The LPLD activity was determined based on changes in absorbance per minute that depend on p-nitrophenol released by the action of LPLD. The activity is expressed by the amount of p-nitrophenol released in one minute per 1 mL of the reaction mixture.

As to “1-alkenyl-2-hydroxy-glycerophosphocholine”, the Reaction product in the assay with LPLD is on record as 1-alkenyl-2-hydroxy-glycero-3-.

lysophosphatidylserine: in the assay with LPLD, the Reaction product entry was “lysophosphatidic acid, serine”.

With `CCCCCCCC/C=C\CCCCCCCC(=O)OC(CO)COP(=O)(O)Oc1ccc([N+](=O)[O-])cc1` (centres unmarked) [substrate C], the “response to human serum” value on LPLD in human serum was “higher”.

Take `CCCCCCCCCCCCCC(=O)OCC(O)COP(=O)(O)Oc1ccc([N+](=O)[O-])cc1` (centres unmarked) [1-myristoyl-phosphatidyl-p-nitrophenol]: the “LPLD activity as a function of reaction pH” value in assay [1] is reported as “stronger activity was found when pH was on the alkaline side”.

As to `CCCCC/C=C\C/C=C\CCCCCCCC(=O)OC(CO)COP(=O)(O)Oc1ccc([N+](=O)[O-])cc1` (centres unmarked) [substrate A], the “activity in a human serum albumin fraction as a function of reaction pH” value on human serum albumin is “also increases”. For the same molecule, in assay [2], the “LPLD activity as a function of reaction pH” value is on record as “potent when pH is on the alkaline side”. Also, on LPLD in human serum, the “response to human serum” value is reported as “higher”.

On to lysophosphatidylcholine, for which the Reaction product entry in the assay on LPLD is reported as “lysophosphatidic acid, choline”.

As to `CCCCCCCCCCCCC/C=C/[C@@H](O)[C@@H](N)COP(=O)([O-])OCC[N+](C)(C)C` [lysosphingomyelin], the Reaction product result in the assay on LPLD was “Sphingosine-1-phosphate,”.

As to lysophosphatidylinositol, the Reaction product result with LPLD is reported as “lysophosphatidic acid,”.

For lysophosphatidylethanolamine, in the assay with LPLD, the Reaction product entry is “lysophosphatidic acid,”.
